# In patent US4281121A, “1,3,4-Thiadiazole-2-carboxylic acid derivatives, process for making the same and fungicidal and nematocidal compositions containing same” (Schering Aktiengesellschaft, priority 1978, dated 1981):
# Tested on: Helminthosporium gram
# Assay: not given
# Details: 10 g active agent per 100 kg; about 5 weeks
row,SMILES,% activity [%]
1,"C=CCNC(=O)c1nnc([S+](C)[O-])s1 (centres unmarked) [5-methylsulfinyl-1,3,4-thiadiazole-2-carboxylic acid-allylamide]",94
2,"C[S+]([O-])c1nnc(C(=O)NC2CC2)s1 (centres unmarked) [5-methylsulfinyl-1,3,4-thiadiazole-2-carboxylic acid-cyclopropylamide]",72

# Same assay, conditions: 20 g active agent per 100 kg; about 5 weeks
row,SMILES,% activity [%]
1,"CCNC(=O)c1nnc(S(=O)(=O)CC)s1 [5-ethylsulfonyl-1,3,4-thiadiazole-2-carboxylic acid ethylamide]",100
2,"CCCCN(C)C(=O)c1nnc(S(=O)(=O)CC)s1 [5-ethylsulfonyl-1,3,4-thiadiazole-2-carboxylic acid-(N-butyl,N-methyl)-amide]",100
3,"C=CCNC(=O)c1nnc([S+](C)[O-])s1 (centres unmarked) [5-methylsulfinyl-1,3,4-thiadiazole-2-carboxylic acid-allylamide]",99
4,"C[S+]([O-])c1nnc(C(=O)NC2CC2)s1 (centres unmarked) [5-methylsulfinyl-1,3,4-thiadiazole-2-carboxylic acid-cyclopropylamide]",98

# Same assay, conditions: 50 g active agent per 100 kg; about 5 weeks
row,SMILES,% activity [%]
1,"CCNC(=O)c1nnc(S(=O)(=O)CC)s1 [5-ethylsulfonyl-1,3,4-thiadiazole-2-carboxylic acid ethylamide]",100
2,"CCCCN(C)C(=O)c1nnc(S(=O)(=O)CC)s1 [5-ethylsulfonyl-1,3,4-thiadiazole-2-carboxylic acid-(N-butyl,N-methyl)-amide]",100
3,"C=CCNC(=O)c1nnc([S+](C)[O-])s1 (centres unmarked) [5-methylsulfinyl-1,3,4-thiadiazole-2-carboxylic acid-allylamide]",100
4,"C[S+]([O-])c1nnc(C(=O)NC2CC2)s1 (centres unmarked) [5-methylsulfinyl-1,3,4-thiadiazole-2-carboxylic acid-cyclopropylamide]",99

# Tested on: Helminthosporium gramineum
# Assay: Seed treatment in open field tests for infestation by Helminthosporium gramineum (barley)
# Format: in vivo
# Details: summer barley; 25 g active agent/100 kg barley; about 3 months
# Method: Seed treatment in open field tests for infestation by Helminthosporium gramineum
# The active agents were used in the form of pulverulent compositions. After about 8 months in case of winter barley and after about 3 months in case of summer barley the infested plants were counted and the activity was calculated by the formula [formula]
row,SMILES,% activity [%]
1,"CCNC(=O)c1nnc(S(=O)(=O)CC)s1 [5-ethylsulfonyl-1,3,4-thiadiazole-2-carboxylic acid ethylamide]",98
2,"CCCCN(C)C(=O)c1nnc(S(=O)(=O)CC)s1 [5-ethylsulfonyl-1,3,4-thiadiazole-2-carboxylic acid-(N-butyl,N-methyl)-amide]",94

# Same assay, conditions: summer barley; 50 g active agent/100 kg barley; about 3 months
row,SMILES,% activity [%]
1,"CCNC(=O)c1nnc(S(=O)(=O)CC)s1 [5-ethylsulfonyl-1,3,4-thiadiazole-2-carboxylic acid ethylamide]",99.5
2,"CCCCN(C)C(=O)c1nnc(S(=O)(=O)CC)s1 [5-ethylsulfonyl-1,3,4-thiadiazole-2-carboxylic acid-(N-butyl,N-methyl)-amide]",96.9
3,"C=CCNC(=O)c1nnc([S+](C)[O-])s1 (centres unmarked) [5-methylsulfinyl-1,3,4-thiadiazole-2-carboxylic acid-allylamide]",100

# Same assay, conditions: summer barley; 100 g active agent/100 kg barley; about 3 months
row,SMILES,% activity [%]
1,"CCNC(=O)c1nnc(S(=O)(=O)CC)s1 [5-ethylsulfonyl-1,3,4-thiadiazole-2-carboxylic acid ethylamide]",100
2,"CCCCN(C)C(=O)c1nnc(S(=O)(=O)CC)s1 [5-ethylsulfonyl-1,3,4-thiadiazole-2-carboxylic acid-(N-butyl,N-methyl)-amide]",99.5

# Tested on: Tilletia caries
# Assay: Treatment of oat seeds infested with Tilletia caries (spore germination)
# Format: in vivo
# Details: 10 g active agent per 100 kg
row,SMILES,% activity [%]
1,"CCNC(=O)c1nnc(S(=O)(=O)CC)s1 [5-ethylsulfonyl-1,3,4-thiadiazole-2-carboxylic acid ethylamide]",99.3
2,"CCCCN(C)C(=O)c1nnc(S(=O)(=O)CC)s1 [5-ethylsulfonyl-1,3,4-thiadiazole-2-carboxylic acid-(N-butyl,N-methyl)-amide]",98
3,"C=CCNC(=O)c1nnc([S+](C)[O-])s1 (centres unmarked) [5-methylsulfinyl-1,3,4-thiadiazole-2-carboxylic acid-allylamide]",99.2

# Same assay, conditions: 20 g active agent per 100 kg
row,SMILES,% activity [%]
1,"CCNC(=O)c1nnc(S(=O)(=O)CC)s1 [5-ethylsulfonyl-1,3,4-thiadiazole-2-carboxylic acid ethylamide]",100
2,"CCCCN(C)C(=O)c1nnc(S(=O)(=O)CC)s1 [5-ethylsulfonyl-1,3,4-thiadiazole-2-carboxylic acid-(N-butyl,N-methyl)-amide]",100
3,"C=CCNC(=O)c1nnc([S+](C)[O-])s1 (centres unmarked) [5-methylsulfinyl-1,3,4-thiadiazole-2-carboxylic acid-allylamide]",100
4,"C[S+]([O-])c1nnc(C(=O)NC2CC2)s1 (centres unmarked) [5-methylsulfinyl-1,3,4-thiadiazole-2-carboxylic acid-cyclopropylamide]",98

# Same assay, conditions: 50 g active agent per 100 kg
row,SMILES,% activity [%]
1,"CCNC(=O)c1nnc(S(=O)(=O)CC)s1 [5-ethylsulfonyl-1,3,4-thiadiazole-2-carboxylic acid ethylamide]",100
2,"CCCCN(C)C(=O)c1nnc(S(=O)(=O)CC)s1 [5-ethylsulfonyl-1,3,4-thiadiazole-2-carboxylic acid-(N-butyl,N-methyl)-amide]",100
3,"C=CCNC(=O)c1nnc([S+](C)[O-])s1 (centres unmarked) [5-methylsulfinyl-1,3,4-thiadiazole-2-carboxylic acid-allylamide]",100
4,"C[S+]([O-])c1nnc(C(=O)NC2CC2)s1 (centres unmarked) [5-methylsulfinyl-1,3,4-thiadiazole-2-carboxylic acid-cyclopropylamide]",100

# Tested on: Plasmopara viticola
# Assay: Prophylactic leaf treatment of grapevines in the hothouse against Plasmopara viticola
# Format: in vivo
# Details: concentration of active agent 0.001 (unit not given)
# Method: Effects of prophylactic leaf treatment of grapevines in the hothouse against Plasmopara viticola
# Young grapevine plants having from 5 to 8 leaves were sprayed dripping wet with the concentrations of active agents stated in the table below. After drying of the spray deposit the leaves were sprayed with an aqueous suspension of sporangia of the fungus (about 20,000 per ml); the spraying was applied to the bottom side of the leaves. The plants were then immediately incubated in a hothouse at a temperature of 22° to 24° C. and at maximum water saturation in the atmosphere. Beginning with the second day the humidity of the air was reduced for 3 to 4 days to normal level (30 to 70% saturation) and was then maintained for another day on the level of full saturation. Subsequently, the percentage portion of the fungus infested surface of each leaf was noted and the average per treatment was calculated in order to determine the fungicidal activity. This was done on the basis of the following formula: [formula]
# The active compounds were applied in the form of a 20% concentration spray powder.
row,SMILES,% activity [%]
1,"CCCCN(C)C(=O)c1nnc(S(=O)(=O)CC)s1 [5-ethylsulfonyl-1,3,4-thiadiazole-2-carboxylic acid-(N-butyl,N-methyl)-amide]",100

# Same assay, conditions: concentration of active agent 0.005 (unit not given)
row,SMILES,% activity [%]
1,"CCCCN(C)C(=O)c1nnc(S(=O)(=O)CC)s1 [5-ethylsulfonyl-1,3,4-thiadiazole-2-carboxylic acid-(N-butyl,N-methyl)-amide]",100
2,"C[S+]([O-])c1nnc(C(=O)NC2CC2)s1 (centres unmarked) [5-methylsulfinyl-1,3,4-thiadiazole-2-carboxylic acid-cyclopropylamide]",80

# Same assay, conditions: concentration of active agent 0.025 (unit not given)
row,SMILES,% activity [%]
1,"CCNC(=O)c1nnc(S(=O)(=O)CC)s1 [5-ethylsulfonyl-1,3,4-thiadiazole-2-carboxylic acid ethylamide]",98
2,"CCCCN(C)C(=O)c1nnc(S(=O)(=O)CC)s1 [5-ethylsulfonyl-1,3,4-thiadiazole-2-carboxylic acid-(N-butyl,N-methyl)-amide]",100
3,"C=CCNC(=O)c1nnc([S+](C)[O-])s1 (centres unmarked) [5-methylsulfinyl-1,3,4-thiadiazole-2-carboxylic acid-allylamide]",90
4,"C[S+]([O-])c1nnc(C(=O)NC2CC2)s1 (centres unmarked) [5-methylsulfinyl-1,3,4-thiadiazole-2-carboxylic acid-cyclopropylamide]",90

# Tested on: Pythium ultimum
# Assay: Threshold concentration test for use of the compounds against Pythium ultimum (infested soil, garden peas)
# Format: in vivo
# Design: key to root evaluation (1-4): 4: white roots without fungous necrosis; 3: white roots, minor fungous necrosis; 2: brown roots, already more pronounced fungous necrosis; 1: heavy fungous necrosis, roots rotted
# Details: 20 mg/l soil; 3 weeks
# Method: Threshold concentration test for use of the compounds against Pythium ultimum
# A 20% concentration of certain pulverulent active agents as listed below were mixed in uniform manner into a soil which had been heavily infested by Pythium ultimum. The thus treated soil was then placed into clay dishes of a capacity of 0.5 l earth. Without any intermediate time lapse 20 grain of garden peas (Pisum sativum L. convar. medullare Alef.) of the type "Wunder von Kelvedon" were then seeded into each of the clay dishes. After a cultivation period of three weeks at 20° to 24° C. in a hothouse the number of sound peas was determined and a root evaluation was carried out. The active agents amounts and results appear from the following table.
# The root evaluation was carried out on a scale from 1 to 4 as follows: […]
row,SMILES,root evaluation (1-4)
1,"CCNC(=O)c1nnc(S(=O)(=O)CC)s1 [5-ethylsulfonyl-1,3,4-thiadiazole-2-carboxylic acid ethylamide]",4
2,"C=CCNC(=O)c1nnc([S+](C)[O-])s1 (centres unmarked) [5-methylsulfinyl-1,3,4-thiadiazole-2-carboxylic acid-allylamide]",4
3,"C[S+]([O-])c1nnc(C(=O)NC2CC2)s1 (centres unmarked) [5-methylsulfinyl-1,3,4-thiadiazole-2-carboxylic acid-cyclopropylamide]",1

# Same assay, conditions: 20 mg/l soil; 20 grains per dish; 3 weeks at 20-24° C.
row,SMILES,number of sound peas
1,"CCNC(=O)c1nnc(S(=O)(=O)CC)s1 [5-ethylsulfonyl-1,3,4-thiadiazole-2-carboxylic acid ethylamide]",15
2,"C=CCNC(=O)c1nnc([S+](C)[O-])s1 (centres unmarked) [5-methylsulfinyl-1,3,4-thiadiazole-2-carboxylic acid-allylamide]",20
3,"C[S+]([O-])c1nnc(C(=O)NC2CC2)s1 (centres unmarked) [5-methylsulfinyl-1,3,4-thiadiazole-2-carboxylic acid-cyclopropylamide]",15

# Same assay, conditions: 40 mg/l soil; 3 weeks
row,SMILES,root evaluation (1-4)
1,"CCNC(=O)c1nnc(S(=O)(=O)CC)s1 [5-ethylsulfonyl-1,3,4-thiadiazole-2-carboxylic acid ethylamide]",4
2,"C=CCNC(=O)c1nnc([S+](C)[O-])s1 (centres unmarked) [5-methylsulfinyl-1,3,4-thiadiazole-2-carboxylic acid-allylamide]",4
3,"C[S+]([O-])c1nnc(C(=O)NC2CC2)s1 (centres unmarked) [5-methylsulfinyl-1,3,4-thiadiazole-2-carboxylic acid-cyclopropylamide]",4

# Same assay, conditions: 40 mg/l soil; 20 grains per dish; 3 weeks at 20-24° C.
row,SMILES,number of sound peas
1,"CCNC(=O)c1nnc(S(=O)(=O)CC)s1 [5-ethylsulfonyl-1,3,4-thiadiazole-2-carboxylic acid ethylamide]",16
2,"C=CCNC(=O)c1nnc([S+](C)[O-])s1 (centres unmarked) [5-methylsulfinyl-1,3,4-thiadiazole-2-carboxylic acid-allylamide]",19
3,"C[S+]([O-])c1nnc(C(=O)NC2CC2)s1 (centres unmarked) [5-methylsulfinyl-1,3,4-thiadiazole-2-carboxylic acid-cyclopropylamide]",20

# Same assay, conditions: 80 mg/l soil; 3 weeks
row,SMILES,root evaluation (1-4)
1,"CCNC(=O)c1nnc(S(=O)(=O)CC)s1 [5-ethylsulfonyl-1,3,4-thiadiazole-2-carboxylic acid ethylamide]",4
2,"C=CCNC(=O)c1nnc([S+](C)[O-])s1 (centres unmarked) [5-methylsulfinyl-1,3,4-thiadiazole-2-carboxylic acid-allylamide]",4
3,"C[S+]([O-])c1nnc(C(=O)NC2CC2)s1 (centres unmarked) [5-methylsulfinyl-1,3,4-thiadiazole-2-carboxylic acid-cyclopropylamide]",4

# Same assay, conditions: 80 mg/l soil; 20 grains per dish; 3 weeks at 20-24° C.
row,SMILES,number of sound peas
1,"CCNC(=O)c1nnc(S(=O)(=O)CC)s1 [5-ethylsulfonyl-1,3,4-thiadiazole-2-carboxylic acid ethylamide]",16
2,"C=CCNC(=O)c1nnc([S+](C)[O-])s1 (centres unmarked) [5-methylsulfinyl-1,3,4-thiadiazole-2-carboxylic acid-allylamide]",18
3,"C[S+]([O-])c1nnc(C(=O)NC2CC2)s1 (centres unmarked) [5-methylsulfinyl-1,3,4-thiadiazole-2-carboxylic acid-cyclopropylamide]",20
